Reference: publication PMC10846744, “Cathelicidin peptide analogues inhibit EV71 infection through blocking viral entry and uncoating” (PLOS Pathogens, 2024)
Where no end group is shown, it is not given here.

What was measured:
coxsackievirus B5 (CVB5) = assay: CVB5 infection inhibition on RD cells (cell viability); format: cell-based; conditions: for inhibition of CVB5 infection: 0.3, 0.9, or 1.5 μM peptide pre-incubated with virus, RD cell viability 24 h.p.i (S1F Fig); for inhibition of CVB5 infection, higher concentrations: 3, 6, or 12 μM peptide pre-incubated with virus, RD cell viability 24 h.p.i (S1H Fig)
Method: Synthetic peptides were purchased from Bioyears Co. Ltd. (Wuhan, China) with purity of more than 95% and dissolved in PBS. To test their inhibitory effects, the EV71 virus (MOI = 1) was incubated with the indicated amount of peptide at room temperature for 1 hr before the mixture was added to RD cells and maintained throughout the experiment. Cell viability, viral titer, or viral protein expression was determined 24 h.p.i. For the time-of-addition experiment, viruses were either pre-incubated with peptides (for the -2 and -1 time points), the mixture was added to the cells simultaneously (for 0 time point), or peptides were added after virus infection (for 1, 2, 4 and 7 h time points) and the virus/peptide was maintained in the culture before cell viability, viral titer, or viral protein expression was determined 24 h.p.i. The TCID50 of the virus was calculated according to the Reed-Muench method.
Cell viability assays were carried out using the Cell Titer-Glo Luminescent Cell Viability Assay Kit (Promega, Madison, WI) following the manufacturer’s instructions. Luminescence signals were measured using a BioTek Neo2 microplate reader.
(A-D) Cell viability of RD cells treated with the indicated amount of DL-37 (A), LL-37 (B), LL-18 (C), or FF-18 (D) was plotted against peptide concentration, and the cytotoxicity was determined. (E) EV71 virus pre-incubated with indicated amounts of DL-37, and the cell viability was determined 24 h.p.i. ***, P<0.001. (F-G) CVB5 (F) or Echo7 (G) virus pre-incubated with 0.3, 0.9, or 1.5 μM of peptides were used to infect RD cells. Cell viability was determined 24 h.p.i. ***, P<0.001. (H-I) CVB5 (H) or Echo7 (I) virus pre-incubated with 3, 6, or 12 μM of peptides were used to infect RD cells. Cell viability was determined 24 h.p.i. ***, P<0.001. (TIF) Click here for additional data file.

[1] = system: EV71 virus-SCARB2 interaction; assay: Virus-SCARB2 co-immunoprecipitation competition; format: binding; conditions: SCARB2-Flag 293T lysates incubated with EV71 virus with or without compound, anti-Flag IP, anti-VP1 immunoblotting
Method: Fig 5 LL-18 interferes with virus-SCARB2 interaction. (A) Molecular docking model of LL-18 with EV71 virion. […] The amino acid residues of capsid protein interacting with both LL-18 and SCARB2 are indicated (right panel). (B) 293T cells expressing SCARB2-Flag were lysed and cell lysates were incubated with EV71 virus in the absence or presence of the indicated amount of LL-18. Cell lysates were then immunoprecipitated with anti-Flag antibody and the precipitated virus was determined with anti-VP1 antibody. (C) 293T cells expressing Annexin 2-Flag were lysed and cell lysates were incubated with EV71 virus in the absence or presence of LL-18. Cell lysates were then immunoprecipitated with anti-Flag antibody and the precipitated virus was determined with anti-VP1 antibody.
Coimmunoprecipitation was performed as previously described. Briefly, VP1, VP2, and VP3 were PCR amplified and cloned into pcDNA3.1 with an HA tag. LL-18 or LL-37 encoding oligonucleotides were inserted into an eGFP-expressing construct (pHW200-eGFP). […] After washing with wash buffer (0.05% Triton X-100) six times, samples were analyzed by Western blotting.
Supplementary file ppat.1011967.s004.tif: S4 Fig Compound 12s interferes with virus-SCARB2 interaction. […] Cell lysates were then immunoprecipitated with anti-Flag antibody and the precipitated virus was determined with anti-VP1 antibody. […]

EV71 virus = assay: Pre-incubation of RD cells with peptide, wash-out, then EV71 infection; format: cell-based, enterovirus 71 (EV71); conditions: RD cells incubated with peptide 2 hrs, EV71 MOI = 1, cell viability 24 h.p.i (S3A Fig)
Method: Supplementary file ppat.1011967.s003.tif: S3 Fig LL-18 binds directly to virus particles. (A) RD cells were pre-incubated with indicated amounts of LL-18, FF-18, DL-37, or LL-37 for 2 hrs before they were washed extensively to remove unbound peptides. Cells were then infected with the EV71 virus (MOI = 1) and cell viability was determined 24 h.p.i. Values were normalized to uninfected RD cells. ***, P<0.001. (B). ^1H NMR spectra of FF-18 peptide in the absence or presence of EV71 virus (green line) or CVB5 virus (red line). (TIF) Click here for additional data file.

IFN-β = IFN-β production in RD cells (q-RT-PCR); format: cell-based, human
Method: For real-time PCR, cells were treated as described, and cellular total RNA was isolated using the Cell Total RNA Isolation Kit (ForeGene, China) according to the manufacturer’s protocol. The cDNA was synthesized using the ProtoScript II First Strand cDNA Synthesis Kit (New England Biolabs). cDNA was then determined with 2×RealStar Green Fast Mixture (GenStar, China) with the following primers: […]
Supplementary file ppat.1011967.s007.tif: S7 Fig Induction of IFN-β production by peptides. (A) RD cells treated with 1.5 μM LL-18 or LL-37 for indicated time and IFN-β production was detected by q-RT-PCR. (B) RD cells treated with EV71 viruses pre-treated with PBS or LL-18 for indicated time and IFN-β production was detected by q-RT-PCR. ns, not significant; **, P<0.01; ***, P<0.001. (TIF) Click here for additional data file.

| Sequence | inhibition of CVB5 infection (coxsackievirus B5 (CVB5)) | inhibition of CVB5 infection, higher concentrations (coxsackievirus B5 (CVB5)) | inhibition of EV71 virus binding to SCARB2 [1] | protection when cells are pre-incubated with peptide and unbound peptide washed out (EV71 virus) | interferon (IFN-β) production after pre-incubation of peptide with viruses (IFN-β; RD cells treated with EV71 pre-treated with LL-18, q-RT-PCR (S7B Fig)) | induction of interferon (IFN-β) production by peptide alone (IFN-β; RD cells, 1.5 μM peptide, q-RT-PCR (S7A Fig)) |
| --- | --- | --- | --- | --- | --- | --- |
| FRKSKEKIGKLFKRIVQRILDFLRNLV [LL-18] | neither LL-18 nor FF-18 could inhibit CVB5 or Echo 7 infection | could still not inhibit CVB5 or Echo 7 infection | inhibit virus binding to SCARB2 in a dose-dependent manner | EV71 could still infect these treated cells and cause cell death | reduced its ability to induce interferon production | could induce interferon production |
| FRKSKEKIGKFFKRIVQRIFDFLRNLV [FF-18] | neither LL-18 nor FF-18 could inhibit CVB5 or Echo 7 infection | could still not inhibit CVB5 or Echo 7 infection | – | EV71 could still infect these treated cells and cause cell death | – | – |
